Measurements reported in the supplement of paper PMC10307832.

Legend:
Experiment in all cases: relative viability (nuclei count vs DMSO), 5 days (fraction); higher = more cells survive
[1] = compound: CN1C=C(C2=CC=CC=C21)/C=C\3/C4=C(C=CC=N4)NC3=O + O=C(CCCCCCC(=O)Nc1ccccc1)NO [Vorinostat] (partner 1 µM)
In short: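 Relative viability divides the nuclei count in treated wells by that in vehicle wells. Lung cancer cell lines were seeded in 1536-well plates, dosed by pin tool the next day, and fixed and stained after 5 days in one step with final 0.05% Triton X-100, 1% formaldehyde and 1 ug/ml Hoechst. Dosing was a single drug or a fixed anchor-drug dose plus five library-drug doses (not always all listed) in √10 steps, and values are medians of duplicate plates imaged at 4×.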

[2] = compound: CN1C=C(C2=CC=CC=C21)/C=C\3/C4=C(C=CC=N4)NC3=O
In short: (§1)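 After an overnight hold at 37 °C, lung cancer cell lines in 1536-well plates were pinned with five library-drug doses (not always all listed), each √10 from the next, on vehicle-anchored plates. The cells stayed 5 days without fresh medium, then a one-step fix, permeabilisation and Hoechst stain preceded 4× imaging and MetaXpress nuclear counts. A plate passed only with control CV under 25% and at least one doubling. Viability is the median, over plates, of treated-well nuclei relative to vehicle-well nuclei.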

Trametinib = compound: CC(=O)Nc1cccc(-n2c(=O)n(C3CC3)c(=O)c3c(Nc4ccc(I)cc4F)n(C)c(=O)c(C)c32)c1 [Trametinib]
In short: as §1

Cell Line | relative viability ([1]; first compound 0.06325 µM) | relative viability ([1]; first compound 0.2 µM) | relative viability ([1]; first compound 0.6325 µM) | relative viability ([1]; first compound 2 µM) | relative viability ([2]; 0.06325 µM) | relative viability ([2]; 0.2 µM) | relative viability ([2]; 0.6325 µM) | relative viability ([2]; 2 µM) | relative viability (Trametinib; 0.0025 µM) | relative viability (Trametinib; 0.007906 µM) | relative viability (Trametinib; 0.02 µM, anchor plate) | relative viability (Trametinib; 0.025 µM) | relative viability (Trametinib; 0.07906 µM) | relative viability (Trametinib; 0.25 µM) | relative viability ([1]; first compound 0.02 µM) | relative viability ([2]; 0.02 µM)
LK-2 | 0.263 | 0.199 | 0.231 | 0.315 | 0.697 | 0.652 | 0.776 | 0.975 | 0.93 | 0.832 | 0.761 | 0.989 | 0.757 | 0.388 |  | 
HCC-827 | 0.87 |  | 0.703 | 0.714 | 0.978 |  | 1.11 | 1.06 | 0.999 | 0.958 | 0.508 | 0.92 | 0.738 | 0.609 | 0.721 | 0.94
SW 1573 | 0.656 | 0.787 | 0.8 | 0.882 | 0.968 | 0.994 | 1.05 | 0.971 | 0.875 | 0.716 | 0.615 | 0.631 | 0.583 | 0.485 | 0.73 | 1.07
NCI-H2023 | 0.562 |  | 0.56 | 0.502 | 0.962 | 0.768 | 0.945 | 0.898 | 0.964 | 0.765 | 0.611 | 0.655 | 0.632 | 0.334 | 0.697 | 1.01
EPLC-272H | 0.379 | 0.465 |  | 0.404 | 0.828 | 0.639 | 0.645 | 0.869 | 0.844 | 0.644 | 0.287 | 0.503 | 0.327 | 0.188 | 0.486 | 0.921
SK-LU-1 | 0.764 | 0.729 | 0.727 | 0.831 | 0.928 | 0.984 | 0.945 | 1.08 | 1.03 | 0.88 | 0.475 | 0.641 | 0.548 | 0.412 | 0.67 | 0.793
NCI-H358 | 0.535 | 0.672 | 1.21 | 0.51 | 0.931 | 0.916 | 0.891 | 0.938 | 0.643 | 0.472 | 0.137 | 0.328 | 0.27 | 0.259 | 0.764 | 0.907
ABC-1 | 0.899 | 0.926 | 1.05 | 0.834 | 0.896 | 0.709 | 0.857 | 0.764 | 0.963 | 0.908 |  | 0.749 | 0.547 | 0.333 | 1.29 | 0.829
NCI-H1395 | 0.725 | 0.564 | 0.662 | 0.604 | 0.894 | 0.632 | 0.878 | 0.785 | 1.03 | 0.83 | 1.03 | 0.69 | 0.67 | 0.523 | 0.679 | 0.818
NCI-H2085 | 0.757 | 0.746 | 0.735 | 0.784 | 0.943 | 0.942 | 1.03 | 0.993 | 0.913 | 0.823 | 0.504 | 0.754 | 0.783 | 0.729 | 0.723 | 1.01
NCI-H2087 | 0.603 | 0.551 | 0.753 | 0.838 | 0.87 | 1.05 | 0.986 | 1.06 | 0.867 | 0.463 | 0.217 | 0.302 | 0.179 | 0.139 | 0.73 | 1
NCI-H322M | 0.821 | 0.712 | 0.904 | 0.828 | 0.93 | 0.787 | 0.973 | 0.956 | 0.81 | 0.717 | 0.519 | 0.603 | 0.556 | 0.432 | 0.855 | 0.854
NCI-H1734 | 0.712 |  | 0.796 | 0.747 | 0.939 |  | 1.05 | 1.06 | 0.959 | 0.92 | 0.717 |  | 0.911 | 0.41 | 0.73 | 0.971
NCI-H2228 | 0.646 | 0.503 | 0.704 | 0.508 | 0.856 |  | 0.864 | 1.14 | 0.771 | 0.885 | 0.555 | 0.811 | 0.61 | 0.363 | 0.85 | 1.05
EKVX | 0.627 | 0.641 | 0.631 | 0.638 | 0.812 | 0.801 | 0.885 | 0.983 | 0.852 | 0.766 | 0.364 | 0.583 | 0.491 | 0.395 | 0.537 | 0.952
NCI-H596 | 0.653 | 0.484 | 0.589 | 0.595 | 0.998 | 0.791 | 0.982 | 0.993 | 0.934 | 0.872 | 0.787 | 0.802 | 0.712 | 0.47 | 0.642 | 0.985
NCI-H1975 | 0.745 | 0.708 | 0.725 | 0.668 | 0.898 | 0.887 | 0.845 | 0.677 | 0.883 | 0.76 | 0.374 | 0.754 | 0.431 | 0.301 | 0.775 | 1.03
NCI-H2170 | 0.762 | 0.747 | 0.614 | 0.758 | 0.983 | 0.833 | 0.839 | 1.07 | 0.96 | 0.955 | 0.94 |  | 0.929 | 0.923 | 0.746 | 0.854

Cell Line | relative viability ([1]; first compound 0.06325 µM) | relative viability ([1]; first compound 0.2 µM) | relative viability ([1]; first compound 0.6325 µM) | relative viability ([1]; first compound 2 µM) | relative viability ([2]; 0.06325 µM) | relative viability ([2]; 0.2 µM) | relative viability ([2]; 0.6325 µM) | relative viability ([2]; 2 µM) | relative viability (Trametinib; 0.0025 µM) | relative viability (Trametinib; 0.007906 µM) | relative viability (Trametinib; 0.02 µM, anchor plate) | relative viability (Trametinib; 0.025 µM) | relative viability (Trametinib; 0.07906 µM) | relative viability (Trametinib; 0.25 µM) | relative viability ([1]; first compound 0.02 µM) | relative viability ([2]; 0.02 µM)
NCI-H1666 | 0.909 | 1.06 | 0.926 | 0.991 | 0.938 | 0.99 | 0.924 | 0.967 | 0.972 | 0.931 | 0.864 | 0.892 | 0.724 | 0.617 | 0.902 | 1.09
PC-3 [JPC-3] | 0.798 | 0.75 | 0.612 | 0.589 | 1.02 | 0.859 | 0.975 | 0.989 | 1.03 | 0.916 | 0.7 | 0.843 | 0.764 | 0.637 | 0.831 | 1.03
NCI-H1755 | 0.751 | 0.477 | 0.584 | 0.643 | 0.991 | 1.05 | 0.914 | 0.891 | 0.886 | 0.879 | 0.773 | 0.83 | 0.885 | 0.842 | 0.601 | 0.968
RERF-LC-KJ | 0.668 | 0.72 | 0.604 | 0.598 | 1.01 | 1.02 | 0.914 | 0.984 | 0.969 | 0.926 | 0.873 | 0.885 | 0.848 | 0.757 | 0.787 | 1
NCI-H647 | 0.529 | 0.676 | 0.524 | 0.531 | 0.863 | 0.656 | 0.784 | 0.827 | 0.837 | 0.754 | 0.516 | 0.588 | 0.554 | 0.293 | 0.498 | 0.946
BEN | 0.541 | 0.571 | 0.636 | 0.574 | 0.872 | 0.701 | 0.755 | 1.05 | 0.953 | 0.96 | 1.07 | 0.566 | 0.658 | 0.814 | 0.547 | 0.863
201T | 0.879 | 1.03 | 1.04 | 1.05 | 0.979 | 0.988 | 0.916 | 0.971 | 0.96 | 0.886 | 0.721 | 0.845 | 0.778 | 0.761 | 1.04 | 0.951
LC-2-ad | 0.661 | 0.666 | 0.706 | 0.669 | 0.995 | 0.786 | 1 | 0.959 | 0.948 | 0.871 | 0.9 | 0.875 | 0.587 | 0.596 | 0.67 | 0.988
NCI-H522 | 0.893 | 0.84 | 0.899 | 0.953 | 1.13 | 0.869 | 0.944 | 0.883 | 1.01 | 1.04 | 0.776 | 0.595 | 0.756 | 0.63 | 0.734 | 0.89
LCLC-97TM1 | 0.621 | 0.467 | 0.766 | 0.77 | 0.844 | 0.717 | 1.11 | 0.922 | 0.884 | 0.836 | 0.197 | 0.398 | 0.204 | 0.138 |  | 0.701
NCI-H1915 | 0.501 | 0.513 | 0.442 | 0.493 | 0.934 | 0.97 | 1.09 | 1.05 | 1.05 | 0.737 | 0.3 | 0.54 | 0.423 | 0.353 | 0.502 | 0.964
NCI-H3122 | 1.06 | 0.734 | 1.02 | 1 | 0.938 | 0.897 | 1.05 | 0.994 | 0.909 | 0.701 | 0.231 | 0.465 | 0.361 | 0.281 | 0.767 | 0.878
NCI-H1650 | 0.532 | 0.566 | 0.549 | 0.554 | 0.923 | 0.685 | 0.794 | 0.914 | 0.902 | 0.898 | 0.583 | 0.827 | 0.599 | 0.264 | 0.548 | 1.03
NCI-H1648 | 0.391 | 0.425 | 0.327 | 0.64 | 0.885 | 0.812 | 0.601 | 0.671 | 0.776 | 0.864 | 0.505 | 0.809 | 0.541 | 0.455 | 0.557 | 0.603
NCI-H1993 | 0.736 | 0.647 | 0.622 | 0.6 | 0.84 | 0.825 | 0.671 | 0.814 | 0.698 | 0.732 | 0.54 | 0.548 | 0.693 | 0.628 | 0.837 | 0.927
NCI-H2405 | 0.913 | 0.754 | 0.98 | 0.73 | 0.959 | 0.715 | 0.966 | 0.961 | 0.944 | 0.946 | 0.665 | 0.553 | 0.535 | 0.556 | 1.16 | 0.987
NCI-H661 | 0.763 | 0.835 | 0.927 | 0.775 | 0.986 | 0.985 | 1.06 | 0.986 | 1.01 | 0.975 | 0.575 | 0.899 | 0.799 | 0.724 | 0.853 | 0.999
NCI-H2342 | 0.787 | 0.788 | 0.613 | 0.684 | 0.963 | 0.955 | 0.878 | 0.906 | 0.958 | 0.915 | 0.847 | 0.554 | 0.749 | 0.855 | 0.661 | 0.938
